In this assay the target is T1, recombinant human NaV1.8 stably transfected HEK cells (Homo sapiens, UniProt Q9Y5Y9).
T1 construct: expressed in transfected cells; host or cells: HEK cells, stably transfected
The experiment in a line: Compound profiling on NaV1.8, human NaV1.8 cell line, SyncroPatch384PE automated patch clamp assay (Example 102, first set of compounds, Table 16). Type of assay: cell-based. To be noted: human NaV1.8 HEK cells, Table 16 (first set of compounds). In short, it runs like this:
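Automated whole-cell patch clamp on HEK cells precultured at 30 °C one day before recording; CsF-based internal, 140 mM NaCl external. 10-point curve, 20–0.001 μM final, 0.1% DMSO, 5 min exposure. IC50 for resting (P1, −120 mV hold) and inactivated (P2, after 10 s at −40 mV) block, normalized to 250 μM tetracaine and DMSO.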
(Patch clamp records ionic current or voltage across a cell membrane.)

[1] abbreviates: inactivated state block (P2 measurement), read-out: P2IC50.
Where [2] appears, read: resting state block (P1 measurement), read-out: P1IC50.

Like-named read-outs stand apart in the source and are kept apart here.

T1 sequence (Q9Y5Y9 whole entry): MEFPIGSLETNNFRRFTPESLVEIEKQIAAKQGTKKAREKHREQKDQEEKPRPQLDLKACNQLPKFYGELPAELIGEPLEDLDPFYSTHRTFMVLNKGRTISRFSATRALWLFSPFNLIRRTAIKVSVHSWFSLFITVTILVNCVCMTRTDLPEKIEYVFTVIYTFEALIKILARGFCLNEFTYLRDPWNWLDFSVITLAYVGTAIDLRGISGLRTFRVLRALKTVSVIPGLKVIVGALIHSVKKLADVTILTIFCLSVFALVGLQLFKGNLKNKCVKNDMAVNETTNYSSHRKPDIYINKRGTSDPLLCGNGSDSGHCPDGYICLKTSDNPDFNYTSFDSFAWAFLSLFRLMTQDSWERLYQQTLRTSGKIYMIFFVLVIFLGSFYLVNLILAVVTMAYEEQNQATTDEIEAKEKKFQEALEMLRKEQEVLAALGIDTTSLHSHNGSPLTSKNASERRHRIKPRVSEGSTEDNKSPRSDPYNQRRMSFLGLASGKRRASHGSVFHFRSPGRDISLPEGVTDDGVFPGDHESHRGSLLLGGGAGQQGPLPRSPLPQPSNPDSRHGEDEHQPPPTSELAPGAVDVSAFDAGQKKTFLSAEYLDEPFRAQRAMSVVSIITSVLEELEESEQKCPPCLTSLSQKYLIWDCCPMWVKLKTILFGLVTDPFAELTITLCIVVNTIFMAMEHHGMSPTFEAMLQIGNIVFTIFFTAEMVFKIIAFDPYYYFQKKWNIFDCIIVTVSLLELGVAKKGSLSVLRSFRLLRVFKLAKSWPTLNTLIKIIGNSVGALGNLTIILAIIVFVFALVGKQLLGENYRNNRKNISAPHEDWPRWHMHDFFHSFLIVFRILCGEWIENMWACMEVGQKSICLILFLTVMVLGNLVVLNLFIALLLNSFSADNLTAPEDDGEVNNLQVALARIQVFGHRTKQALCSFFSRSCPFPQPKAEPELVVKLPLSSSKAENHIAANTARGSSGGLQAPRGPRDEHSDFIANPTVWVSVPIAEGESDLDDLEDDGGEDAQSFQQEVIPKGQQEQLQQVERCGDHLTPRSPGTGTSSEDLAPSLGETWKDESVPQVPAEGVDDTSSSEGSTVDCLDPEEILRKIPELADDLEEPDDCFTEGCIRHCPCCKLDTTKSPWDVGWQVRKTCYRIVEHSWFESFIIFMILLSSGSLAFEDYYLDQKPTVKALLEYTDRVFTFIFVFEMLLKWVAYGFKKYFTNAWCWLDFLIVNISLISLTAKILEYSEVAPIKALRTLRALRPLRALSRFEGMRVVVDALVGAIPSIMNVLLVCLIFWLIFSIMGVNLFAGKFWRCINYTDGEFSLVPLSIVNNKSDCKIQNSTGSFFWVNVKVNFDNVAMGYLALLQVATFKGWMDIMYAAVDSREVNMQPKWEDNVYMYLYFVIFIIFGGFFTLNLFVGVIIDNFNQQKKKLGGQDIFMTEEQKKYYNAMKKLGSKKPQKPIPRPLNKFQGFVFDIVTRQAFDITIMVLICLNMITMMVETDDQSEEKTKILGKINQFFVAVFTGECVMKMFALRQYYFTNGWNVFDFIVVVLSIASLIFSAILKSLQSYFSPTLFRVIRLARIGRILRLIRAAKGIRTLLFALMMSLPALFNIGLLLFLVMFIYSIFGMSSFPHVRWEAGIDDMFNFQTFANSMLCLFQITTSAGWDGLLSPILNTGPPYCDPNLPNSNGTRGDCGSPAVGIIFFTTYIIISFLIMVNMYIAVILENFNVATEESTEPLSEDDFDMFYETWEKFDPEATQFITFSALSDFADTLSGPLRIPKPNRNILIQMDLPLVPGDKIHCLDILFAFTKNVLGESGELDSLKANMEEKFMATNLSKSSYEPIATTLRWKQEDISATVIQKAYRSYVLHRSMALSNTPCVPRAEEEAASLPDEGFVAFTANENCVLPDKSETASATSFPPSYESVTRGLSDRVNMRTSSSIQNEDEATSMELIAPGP

For `Cc1cc(F)ccc1COc1ncc(C(F)(F)F)cc1C(=O)Nc1cccc(S(C)(=O)=O)c1` [Compound 1596], the IC50 was in the range of 200 to 500 nM under setting [1] and 200 to 500 nM under setting [2].

For `COc1ncc(C#N)cc1Oc1ncc(C(F)(F)F)cc1C(=O)Nc1cccc(S(C)(=N)=O)c1` (centres unmarked) [Compound 1623], the IC50 by setting is: under setting [1], 200 to 500 nM; under setting [2], 200 to 500 nM.

Regarding `Cc1ccc(Oc2nnc(C(F)(F)F)c(C)c2C(=O)Nc2cccc(S(C)(=O)=O)c2)c(C)n1` [Compound 1420], the IC50 reads like this: under setting [1], 200 to 500 nM; under setting [2], 200 to 500 nM.

On to `COc1cc(C#N)ccc1Oc1nnc(-c2ccc(C)cc2)c(C)c1C(=O)Nc1cccc([S@@](C)(=N)=O)c1` [Compound 1530, 3-(4-cyano-2-methoxyphenoxy)-N-{3-[(S)-imino(methyl)oxo-λ^6-sulfanyl]phenyl}-5-methyl-6-(4-methylphenyl)pyridazine-4-carboxamide], for which the IC50 under setting [1] fell in the range of 40 to 200 nM and the IC50 under setting [2] is 40 to 200 nM.

Take `COc1cc(C#N)ccc1Oc1nnc(C(F)(F)F)c(C)c1C(=O)Nc1cccc(C(=O)NC2CCCC2C(N)=O)c1` (centres unmarked) [Compound 1444, N-[3-[(2-carbamoylcyclopentyl)carbamoyl]phenyl]-3-(4-cyano-2-methoxy-phenoxy)-5-methyl-6-(trifluoromethyl)pyridazine-4-carboxamide]: the IC50 reads like this: under setting [1], 200 to 500 nM; under setting [2], 200 to 500 nM.

For the compound `COc1ccc(-c2nnc(Oc3ccc(C#N)cc3OC)c(C(=O)Nc3cccc([S@](C)(=N)=O)c3)c2C)cc1` [Compound 1535, 3-(4-cyano-2-methoxyphenoxy)-N-{3-[(R)-imino(methyl)oxo-λ^6-sulfanyl]phenyl}-6-(4-methoxyphenyl)-5-methylpyridazine-4-carboxamide], the IC50 is, setting by setting: under setting [1], 20 to 40 nM; under setting [2], 20 to 40 nM.

As for `CC#Cc1nnc(Oc2ccc(F)cc2C)c(C(=O)Nc2cccc(S(C)(=N)=O)c2)c1C` (centres unmarked) [Compound 1434, 3-(4-Fluoro-2-methylphenoxy)-5-methyl-N-(3-(S-methylsulfonimidoyl)phenyl)-6-(prop-1-yn-1-yl)pyridazine-4-carboxamide], the IC50 under setting [1] lay within 200 to 500 nM and the IC50 under setting [2] was 200 to 500 nM.

For the compound `N#Cc1cc(F)ccc1Oc1ncc(C(F)(F)F)cc1C(=O)Nc1cccc(C(N)=O)c1` [Compound 1692], the IC50 is, setting by setting: under setting [1], 40 to 200 nM; under setting [2], 40 to 200 nM.

Take `COc1cc(C#N)ccc1Oc1nnc(C(F)(F)F)c(C)c1C(=O)Nc1ccc(OC)c(C(N)=O)c1` [Compound 1541, N-(3-carbamoyl-4-methoxy-phenyl)-3-(4-cyano-2-methoxy-phenoxy)-5-methyl-6-(trifluoromethyl)pyridazine-4-carboxamide]: the IC50 is 200 to 500 nM under setting [1] and 200 to 500 nM under setting [2].

For the compound `CS(=O)(=O)c1cccc(NC(=O)c2cc(C(F)(F)F)cnc2Oc2ccc3c(c2)NC(=O)C3)c1` [Compound 1601], the IC50 under setting [1] fell in the range of 200 to 500 nM and the IC50 under setting [2] is 200 to 500 nM.

In the case of `CS(=N)(=O)c1cccc(NC(=O)c2cc(C(F)(F)F)cnc2OC2CC(C(F)(F)F)C2)c1` (mixture of isomers) [Compound 1666], the IC50 lay in the range of 40 to 200 nM under setting [1] and 40 to 200 nM under setting [2].

In the case of `CS(=N)(=O)c1cccc(NC(=O)c2cc(C(F)(F)F)cnc2Oc2cnc(C(F)(F)F)nc2)c1` (centres unmarked) [Compound 1696], the IC50 reads like this: under setting [1], 200 to 500 nM; under setting [2], 200 to 500 nM.

Take `COc1cc(C#N)ccc1Oc1nnc(-c2ccn(C)n2)c(C)c1C(=O)Nc1cccc(S(C)(=N)=O)c1` (centres unmarked) [Compound 1448, 3-(4-cyano-2-methoxy-phenoxy)-5-methyl-6-(1-methylpyrazol-3-yl)-N-[3-(methylsulfonimidoyl)phenyl]pyridazine-4-carboxamide]: the IC50 runs as follows: under setting [1], 200 to 500 nM; under setting [2], 200 to 500 nM.

As for `Cc1nc(F)ccc1Oc1ncc(C(F)(F)F)c(C)c1C(=O)Nc1cccc([S@@](C)(=N)=O)c1` [Compound 1560, (S)-2-((6-fluoro-2-methylpyridin-3-yl)oxy)-4-methyl-N-(3-(S-methylsulfonimidoyl)phenyl)-5-(trifluoromethyl)nicotinamide], the IC50 was no more than 20 nM under setting [1] and no more than 20 nM under setting [2].

As for `COc1cc(C#N)ccc1Oc1nnc(-c2cnc(C(F)(F)F)s2)c(C)c1C(=O)Nc1cccc(S(C)(=N)=O)c1` (centres unmarked) [Compound 1459, 3-(4-cyano-2-methoxy-phenoxy)-5-methyl-N-[3-(methylsulfonimidoyl)phenyl]-6-[2-(trifluoromethyl)thiazol-5-yl]pyridazine-4-carboxamide], the IC50 is no more than 20 nM under setting [1] and no more than 20 nM under setting [2].

Consider `COc1cc(C#N)ccc1Oc1nnc(C2=CCOC2)c(C)c1C(=O)Nc1cccc(S(C)(=N)=O)c1` (centres unmarked) [Compound 1556, 3-(4-cyano-2-methoxy-phenoxy)-6-(2,5-dihydrofuran-3-yl)-5-methyl-N-[3-(methylsulfonimidoyl)phenyl]pyridazine-4-carboxamide], for which the IC50 by setting is: under setting [1], 40 to 200 nM; under setting [2], 40 to 200 nM.

In the case of `CS(=O)(=O)c1cccc(NC(=O)c2cc(C(F)(F)F)cnc2OCC2CCC2(F)F)c1` (centres unmarked) [Compound 1605], the IC50 lay within 200 to 500 nM under setting [1] and 200 to 500 nM under setting [2].

Consider `Cc1cc(F)ccc1Oc1nnc(C(F)(F)F)c(C)c1C(=O)Nc1cccc(S(N)(=O)=O)c1` [Compound 1466, 3-(4-fluoro-2-methylphenoxy)-5-methyl-N-(3-sulfamoylphenyl)-6-(trifluoromethyl)pyridazine-4-carboxamide], for which the IC50 is, setting by setting: under setting [1], no more than 20 nM; under setting [2], no more than 20 nM.

On to `COc1cc(C#N)ccc1Oc1nnc(-c2cnc(C)nc2)c(C)c1C(=O)Nc1cccc(S(C)(=N)=O)c1` (centres unmarked) [Compound 1457, 3-(4-cyano-2-methoxy-phenoxy)-5-methyl-6-(2-methylpyrimidin-5-yl)-N-[3-(methylsulfonimidoyl)phenyl]pyridazine-4-carboxamide], for which the IC50 by setting is: under setting [1], 200 to 500 nM; under setting [2], 200 to 500 nM.

With `Cc1cc(F)ccc1Oc1ncc(Br)c(C)c1C(=O)Nc1cccc([S@](C)(=N)=O)c1` [Compound 1731, (R)-5-bromo-2-(4-fluoro-2-methylphenoxy)-4-methyl-N-(3-(S-methylsulfonimidoyl)phenyl)nicotinamide], the IC50 reads like this: under setting [1], no more than 20 nM; under setting [2], no more than 20 nM.

On to `COc1cc(Cl)ccc1Oc1nnc(C(F)(F)F)c(C)c1C(=O)Nc1ccc(C(N)=O)cc1` [Compound 1403], for which the IC50 is, setting by setting: under setting [1], 20 to 40 nM; under setting [2], 20 to 40 nM.

Turning to `Cn1ccc2c(Oc3ncc(C(F)(F)F)cc3C(=O)Nc3cccc(S(C)(=O)=O)c3)cccc21` [Compound 1624], the IC50 reads like this: under setting [1], 200 to 500 nM; under setting [2], 200 to 500 nM.

`COc1cc(C#N)ccc1Oc1nnc(-c2ccccc2)c(C)c1C(=O)Nc1cccc(S(C)(=N)=O)c1` (centres unmarked) [Compound 1436, 3-(4-cyano-2-methoxyphenoxy)-5-methyl-N-(3-(S-methylsulfonimidoyl)phenyl)-6-phenylpyridazine-4-carboxamide]: the IC50 by setting is: under setting [1], 40 to 200 nM; under setting [2], 20 to 40 nM.

With `Cc1c(C(F)(F)F)nnc(Oc2ccc(OC3CCC3)c(F)c2F)c1C(=O)Nc1cccc(S(C)(=N)=O)c1` (single isomer, unassigned) [Compound 1494, 3-(4-cyclobutoxy-2,3-difluorophenoxy)-N-{3-[imino(methyl)oxo-λ^6-sulfanyl]phenyl}-5-methyl-6-(trifluoromethyl)pyridazine-4-carboxamide], the IC50 runs as follows: under setting [1], 20 to 40 nM; under setting [2], no more than 20 nM.

With `COc1cc(Cl)ccc1Oc1nnc(C(F)(F)F)c(C)c1C(=O)Nc1cccc(S(C)(=N)=O)c1` (single isomer, unassigned) [Compound 1482, 3-(4-chloro-2-methoxyphenoxy)-5-methyl-N-(3-(S-methylsulfonimidoyl)phenyl)-6-(trifluoromethyl)pyridazine-4-carboxamide], the IC50 under setting [2] is no more than 20 nM.

In the case of `COc1nc(C)ccc1Oc1ncc(C(F)(F)F)cc1C(=O)Nc1cccc(S(C)(=O)=O)c1` [Compound 1608], the IC50 is no more than 20 nM under setting [1] and no more than 20 nM under setting [2].

In the case of `Cc1nc(Br)ccc1Oc1ncc(C(F)(F)F)cc1C(=O)Nc1cccc(S(C)(=N)=O)c1` (centres unmarked) [Compound 1684], the IC50 by setting is: under setting [1], no more than 20 nM; under setting [2], no more than 20 nM.

Values taken from patent US20240336574A1 (LATIGO BIOTHERAPEUTICS, INC., priority 2021, published 2024).
